PubChem BioAssay (NCI)
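In this assay, cells in 96-well plates receive the compound at five concentrations for 48 hours. Endpoints are linearly interpolated between the surrounding concentrations. The concentration for 50% growth inhibition is given as GI50. TGI: concentration producing complete growth inhibition.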

Legend:
Experiment in all cases: DTP human tumour cell line panel, 48 h
CCRF-CEM leukemia = system: CCRF-CEM leukemia
HOP-62 NSCLC = system: HOP-62 NSCLC
LOX IMVI melanoma = system: LOX IMVI melanoma
MCF7 breast = system: MCF7 breast
NCI-H226 lung = system: NCI-H226 lung
NCI-H460 lung = system: NCI-H460 lung
SF-295 CNS = system: SF-295 CNS
SK-MEL-5 melanoma = system: SK-MEL-5 melanoma
SR leukemia = system: SR leukemia

SMILES	TGI (CCRF-CEM leukemia)	TGI (HOP-62 NSCLC)	TGI (LOX IMVI melanoma)	TGI (MCF7 breast)	TGI (NCI-H226 lung)	TGI (NCI-H460 lung)	TGI (SF-295 CNS)	TGI (SK-MEL-5 melanoma)	TGI (SR leukemia)	GI50 (CCRF-CEM leukemia)	GI50 (HOP-62 NSCLC)	GI50 (LOX IMVI melanoma)	GI50 (MCF7 breast)	GI50 (NCI-H226 lung)	GI50 (NCI-H460 lung)	GI50 (SF-295 CNS)	GI50 (SK-MEL-5 melanoma)	GI50 (SR leukemia)
CC(CSc1nc2c(c(=N)n1-c1ccccc1)c(=S)n(-c1ccccc1)c(=S)n2-c1ccccc1)CN(C)C (centres undefined)	1.49 µM	3.62 µM	2.57 µM	1.05 µM	14.2 µM	4.14 µM	16.7 µM	4.42 µM	0.938 µM									
COc1cc(/C=C2\C(=O)N(c3ccc(Cl)cc3)C(c3ccccc3)S2(=O)=O)cc(OC)c1OC (centres undefined)	> 70.7 µM	> 96.7 µM	> 100 µM	> 63.6 µM	> 100 µM	> 100 µM	> 100 µM	> 22 µM										
CCOC(=O)/C(=C/c1cn(C(C)=O)c2ccccc12)P(=O)(OC)OC	68.1 µM	> 100 µM	79.2 µM	> 100 µM		79.7 µM	> 100 µM	> 100 µM	73.8 µM									
COc1ccc(C2CC(c3cccc(Nc4ccncc4)c3)=NN2c2ccccc2)cc1 (centres undefined)	11.6 µM	5.81 µM	3.11 µM	4.01 µM	8.83 µM	3.34 µM	3.32 µM	3.28 µM	5.59 µM	3.44 µM	2.25 µM	1.74 µM	1.87 µM	2.31 µM	1.8 µM	1.8 µM	1.8 µM	2 µM
CN(C)CCCNC(=O)N/N=C/c1ccccn1	> 10 µM	> 10 µM	> 10 µM	> 10 µM		> 10 µM	> 10 µM	> 10 µM	> 10 µM									
COc1ccc(C=C2C(C)=NN(c3cccc(Cl)c3)C23C(Cl)C(=O)N3c2nc3ccccc3s2)cc1 (centres undefined)	30.5 µM	44.4 µM	38.5 µM	61.4 µM	79.1 µM	66.6 µM	50.9 µM	32.9 µM	85.7 µM									
O=C(CN1CCCC1)Nc1ccc2c(c1)C1Oc3ccccc3CC1CO2 (centres undefined)	> 100 µM	45.5 µM	44.5 µM	32.4 µM	> 100 µM		39.7 µM	28.2 µM	89.6 µM									
COc1cc2c(cc1OCCN1CCN(CCOc3cc4c(cc3OC)C(=O)N3CCC[C@H]3C=N4)CC1)N=C[C@@H]1CCCN1C2=O	> 100 µM	> 100 µM	> 100 µM	> 100 µM	66.2 µM	> 100 µM	67.3 µM	48.9 µM		4.49 µM		> 100 µM						
CCOC(=O)CC1C(C(=O)OCC)=Cn2c([nH]c3cccc4cccc2c43)=C1C(=O)OCC (centres undefined)	> 100 µM	> 100 µM	> 100 µM	> 100 µM	> 100 µM	> 100 µM	> 100 µM	> 100 µM	> 100 µM									
CC(=O)CCN1CC2CN=NC2(C#N)C1 (centres undefined)	> 61 µM	> 100 µM	> 100 µM	> 100 µM	> 70 µM	> 100 µM	> 100 µM	> 100 µM	> 100 µM									
C[C@]12CC[C@H]3[C@@H](CCC4=C/C(=N/OCCN5CCCCC5)CC[C@@]43C)[C@@H]1CC[C@@H]2O	26.9 µM	29.1 µM	57.3 µM	26.8 µM	48.4 µM		29.3 µM	26.4 µM										
CN(C)c1ccc(/C=C2\N=C(c3ccccc3)N(c3nc4ccc(Sc5ccccc5)cc4[nH]3)C2=O)cc1	> 100 µM	> 100 µM	> 100 µM	> 100 µM		> 100 µM	72.2 µM	> 100 µM										
N=C(N)c1ccc(N=Nc2c(O)c(C(=O)Nc3ccccc3)cc3ccccc23)cc1	5.92 µM	41 µM		41.7 µM	> 100 µM	> 75.3 µM	> 100 µM	> 49.6 µM	> 75.8 µM									
CC1(c2ccc(Cl)cc2)c2ccccc2C(=O)N1CCCN1C(=O)c2ccccc2C1=O (centres undefined)	> 100 µM	> 100 µM	47.5 µM		63.4 µM		67 µM	31 µM	> 100 µM									
Cc1cc(S(=O)(=O)NC2=NCc3c(F)cccc3N2)c(S)cc1Cl	> 100 µM		> 100 µM	> 100 µM	> 100 µM	> 100 µM	> 100 µM	> 100 µM	> 100 µM									
CC(=O)N1CN2C(=O)CCC2c2cc(C)ccc21 (centres undefined)	> 100 µM	> 100 µM	> 100 µM	> 100 µM	> 100 µM	> 100 µM	> 100 µM	> 100 µM										
CC(C)(C)C(=O)C(N)C(=O)C(C)(C)C	> 100 µM	> 100 µM	> 100 µM	> 100 µM		> 100 µM	> 100 µM	> 100 µM	> 100 µM									
N#CC(c1cc(Cl)ncn1)c1nc2cc(C(F)(F)F)ccc2s1 (centres undefined)		30.9 µM	11.8 µM		92 µM	> 100 µM	29.2 µM	26.2 µM										

SMILES	TGI (CCRF-CEM leukemia)	TGI (HOP-62 NSCLC)	TGI (LOX IMVI melanoma)	TGI (MCF7 breast)	TGI (NCI-H226 lung)	TGI (NCI-H460 lung)	TGI (SF-295 CNS)	TGI (SK-MEL-5 melanoma)	TGI (SR leukemia)	GI50 (CCRF-CEM leukemia)	GI50 (HOP-62 NSCLC)	GI50 (LOX IMVI melanoma)	GI50 (MCF7 breast)	GI50 (NCI-H226 lung)	GI50 (NCI-H460 lung)	GI50 (SF-295 CNS)	GI50 (SK-MEL-5 melanoma)	GI50 (SR leukemia)
CC1=NN(c2cc(Cl)c(S(=O)(=O)O)cc2Cl)C2(C1)C(Cl)C(=O)N2c1nc2ccccc2s1 (centres undefined)	> 100 µM		> 100 µM	> 100 µM	> 100 µM	> 100 µM		> 100 µM	> 100 µM									
O=C(c1ccccc1)C1C(c2ccccc2[N+](=O)[O-])N1C1CCCCC1 (centres undefined)		34.1 µM	5.18 µM	15.9 µM	34 µM	24.8 µM	35.3 µM	24.4 µM										
CCOC(=O)CCC(C(=O)OCC)n1nnc2cc(Nc3c(C)[n+]([O-])c4cc(Cl)ccc4[n+]3[O-])ccc21 (centres undefined)	> 100 µM	> 100 µM	> 100 µM	80 µM	> 100 µM	> 100 µM	> 100 µM	> 100 µM										
O=c1ccc(=O)c2c1c1[nH]c3ccccc3c1c1c(=O)c3ccccc3c(=O)c21	> 10 µM	> 10 µM	> 10 µM		> 10 µM	> 10 µM	> 10 µM	> 10 µM	> 10 µM									
Cc1cc(Br)c(O)c(-c2cscn2)c1	28.6 µM	41.2 µM	23.1 µM			49.6 µM	> 100 µM	30.5 µM										
FC(F)(Sc1ncccn1)c1nc2ccccc2o1	> 100 µM	> 100 µM		> 100 µM	> 100 µM	> 100 µM	> 100 µM	> 100 µM	> 100 µM									
CCOC(=O)CCC(NC(=O)c1ccc(NCc2ccc3nc(OC)c(OC)nc3c2)c2ccccc12)C(=O)OCC (centres undefined)		> 100 µM	> 100 µM	> 100 µM	> 100 µM	> 100 µM	> 100 µM	> 100 µM										
COC(=O)c1c2c(cc3c1CC1(Cc4cc5c(cc4C1)CCCC5)C3)CCCC2	> 100 µM	> 100 µM	> 100 µM	> 100 µM			> 100 µM	> 100 µM	> 100 µM									
CN1CCN(Cc2ccc(C(=S)Nc3ccccc3)s2)CC1	> 100 µM	> 100 µM	31.9 µM	> 100 µM		> 100 µM	> 100 µM	34.1 µM	73 µM									
Clc1ccc(-c2nn3c(COc4ccc(OCc5nnc6sc(-c7ccc(Cl)cc7)nn56)c(Cl)c4)nnc3s2)cc1		77.7 µM	35.6 µM	> 100 µM	> 100 µM	> 100 µM	> 100 µM	80.2 µM	61.4 µM									
c1csc(-c2cc(-c3ccsc3)cs2)c1	> 100 µM	> 100 µM	> 100 µM	> 100 µM		> 100 µM	> 100 µM	> 100 µM	> 100 µM									
CCCCCCCCCCCCCCCCOC[C@H](COC(c1ccccc1)(c1ccccc1)c1ccccc1)O[P+](=S)OC (some centres undefined)	> 100 µM		> 100 µM	> 100 µM	> 100 µM	> 100 µM	> 100 µM	> 100 µM	> 100 µM									
CC1OC23CCCCC2C(C#N)(C#N)C1(C#N)C(=N)O3 (centres undefined)	46.8 µM		40.2 µM	52.3 µM	> 100 µM	43.5 µM	> 100 µM	32.3 µM										
Cc1c(C)c2c(c(N)c1C#N)C(=O)N(NC(=S)Nc1ccccc1)C2=O	> 100 µM			> 100 µM	> 100 µM	> 100 µM	> 100 µM	> 100 µM	83.5 µM									
CCCCCCCCCCCCCCCC[N+](C)(C)CCl		6.69 µM		> 28.9 µM	6.25 µM	4.74 µM	6.06 µM	2.94 µM										
COc1cc2ccc(C(C)NCC#N)cc2cc1OC (centres undefined)		> 100 µM	> 100 µM	> 100 µM	> 100 µM	> 100 µM	> 100 µM	> 100 µM	> 100 µM									
COc1cc(-c2cc(OC)c(OC)c3ccc(Br)cc23)c2cc(Br)ccc2c1OC		44.7 µM	46.6 µM	85.7 µM	58.1 µM	> 100 µM	43.8 µM	> 100 µM	86 µM									
COC1=C(OC)C(=O)C(Cc2c(-c3ccccc3)nc3sc(Cl)cn23)=C(C)C1=O	53 µM	38.2 µM	71.7 µM	52.4 µM		40 µM	34.3 µM	29.2 µM	72.1 µM									
